Assay results as given in ChEMBL document CHEMBL3112450, “Synthesis and in vitro antitumor evaluation of primary amine substituted quinazoline linked benzimidazole” (Bioorg Med Chem Lett, 2014).

What was measured:
Type in all cases: functional
BT-549 = assay: Cytotoxicity against human BT549 cells assessed as growth inhibition at 10 uM after 48 hrs by SRB assay; details: BT-549, 48 h, read-out: GI
SN12C [1] = assay: Cytotoxicity against human SN12C cells after 48 hrs by SRB assay
SR = assay: Cytotoxicity against human SR cells assessed as cell growth at 10^-4 M after 48 hrs by SRB assay; details: read-out: Activity
LOX IMVI = assay: Cytotoxicity against human LOXIMVI cells assessed as cell growth at 10^-7 M after 48 hrs by SRB assay; details: read-out: Activity
DU-145 [2] = assay: Cytotoxicity against human DU145 cells assessed as cell growth at 10^-7 M after 48 hrs by SRB assay; details: DU-145, 48 h, read-out: Activity
M14 = assay: Cytotoxicity against human M14 cells assessed as cell growth at 10^-8 M after 48 hrs by SRB assay; details: M14, 48 h, read-out: Activity
K562 = assay: Cytotoxicity against human K562 cells assessed as cell growth at 10^-6 M after 48 hrs by SRB assay; details: K562, 48 h, read-out: Activity
SN12C [3] = assay: Cytotoxicity against human SN12C cells assessed as cell growth at 10^-7 M after 48 hrs by SRB assay; details: read-out: Activity
RXF 393 = assay: Cytotoxicity against human RXF393 cells assessed as cell growth at 10^-8 M after 48 hrs by SRB assay; details: RXF 393, 48 h, read-out: Activity
SW-620 [4] = assay: Cytotoxicity against human SW620 cells assessed as growth inhibition at 10 uM after 48 hrs by SRB assay; details: SW-620, 48 h, read-out: GI
OVCAR-8 = assay: Cytotoxicity against human OVCAR8 cells assessed as cell growth at 10^-8 M after 48 hrs by SRB assay; details: OVCAR-8, 48 h, read-out: Activity
MOLT-4 = assay: Cytotoxicity against human MOLT4 cells assessed as cell growth at 10^-7 M after 48 hrs by SRB assay; details: MOLT-4, 48 h, read-out: Activity
[5] = Cytotoxicity against human OVCAR5 cells after 48 hrs by SRB assay; details: OVCAR-5, 48 h
T47D = assay: Cytotoxicity against human T47D cells assessed as cell growth at 10^-7 M after 48 hrs by SRB assay; details: read-out: Activity
DU-145 [6] = assay: Cytotoxicity against human DU145 cells assessed as cell growth at 10^-4 M after 48 hrs by SRB assay; details: DU-145, 48 h, read-out: Activity
NCI-H460 [7] = assay: Cytotoxicity against human NCI-H460 cells assessed as cell growth at 10^-7 M after 48 hrs by SRB assay; details: NCI-H460, 48 h, read-out: Activity
[8] = Cytotoxicity against human Hs578T cells after 48 hrs by SRB assay; details: Hs-578T
NCI-H460 [9] = assay: Cytotoxicity against human NCI-H460 cells assessed as cell growth at 10^-6 M after 48 hrs by SRB assay; details: NCI-H460, 48 h, read-out: Activity
MDA-MB-231 [10] = assay: Cytotoxicity against human MDA-MB-231 cells after 48 hrs by SRB assay; details: MDA-MB-231, 48 h
OVCAR-3 [11] = assay: Cytotoxicity against human OVCAR3 cells assessed as cell growth at 10^-8 M after 48 hrs by SRB assay; details: OVCAR-3, 48 h, read-out: Activity
MDA-MB-231 [12] = assay: Cytotoxicity against human MDA-MB-231 cells assessed as cell growth at 10^-8 M after 48 hrs by SRB assay; details: MDA-MB-231, 48 h, read-out: Activity
NCI-H322M = assay: Cytotoxicity against human NCI-H322M cells assessed as cell growth at 10^-6 M after 48 hrs by SRB assay; details: read-out: Activity
SW-620 [13] = assay: Cytotoxicity against human SW620 cells assessed as cell growth at 10^-8 M after 48 hrs by SRB assay; details: SW-620, 48 h, read-out: Activity
HOP-92 [14] = assay: Cytotoxicity against human HOP92 cells assessed as cell growth at 10^-4 M after 48 hrs by SRB assay; details: HOP-92, 48 h, read-out: Activity
SK-MEL-28 = assay: Cytotoxicity against human SK-MEL-28 cells assessed as cell growth at 10^-8 M after 48 hrs by SRB assay; details: SK-MEL-28, 48 h, read-out: Activity
SK-OV-3 = assay: Cytotoxicity against human SKOV3 cells assessed as cell growth at 10^-6 M after 48 hrs by SRB assay; details: SK-OV-3, 48 h, read-out: Activity
KM12 = assay: Cytotoxicity against human KM12 cells assessed as cell growth at 10^-4 M after 48 hrs by SRB assay; details: KM12, 48 h, read-out: Activity
OVCAR-3 [15] = assay: Cytotoxicity against human OVCAR3 cells assessed as cell growth at 10^-4 M after 48 hrs by SRB assay; details: OVCAR-3, 48 h, read-out: Activity
NCI-H226 = assay: Cytotoxicity against human NCI-H226 cells assessed as cell growth at 10^-6 M after 48 hrs by SRB assay; details: NCI-H226, 48 h, read-out: Activity
A549 = assay: Cytotoxicity against human A549 cells assessed as cell growth at 10^-4 M after 48 hrs by SRB assay; details: A549, 48 h, read-out: Activity
MCF7 [16] = assay: Cytotoxicity against human MCF7 cells assessed as cell growth at 10^-6 M after 48 hrs by SRB assay; details: MCF7, 48 h, read-out: Activity
MCF7 [17] = assay: Cytotoxicity against human MCF7 cells assessed as growth inhibition at 10 uM after 48 hrs by SRB assay; details: MCF7, 48 h, read-out: GI
HOP-92 [18] = assay: Cytotoxicity against human HOP92 cells after 48 hrs by SRB assay; details: HOP-92, 48 h
UACC-62 = assay: Cytotoxicity against human UACC62 cells after 48 hrs by SRB assay; details: UACC-62, 48 h
SK-MEL-2 [19] = assay: Cytotoxicity against human SK-MEL-2 cells after 48 hrs by SRB assay; details: SK-MEL-2, 48 h
HCT-116 = assay: Cytotoxicity against human HCT116 cells assessed as cell growth at 10^-4 M after 48 hrs by SRB assay; details: HCT-116, 48 h, read-out: Activity
SK-MEL-2 [20] = assay: Cytotoxicity against human SK-MEL-2 cells assessed as cell growth at 10^-6 M after 48 hrs by SRB assay; details: SK-MEL-2, 48 h, read-out: Activity
RPMI-8226 = assay: Cytotoxicity against human RPMI8226 cells assessed as growth inhibition at 10 uM after 48 hrs by SRB assay; details: RPMI-8226, 48 h, read-out: GI
[21] = Cytotoxicity against human EKVX cells assessed as cell growth at 10^-5 M after 48 hrs by SRB assay; details: read-out: Activity

## C=CCn1c(C)nc2ccc(Nc3nc(Nc4ccc(F)cc4)nc4ccccc34)cc21
BT-549
  inhibition of growth at 10 µM: 40%
SN12C [1]
  GI50: 2.78 µM
  LC50: > 100 µM
  TGI: 15.1 µM
SR
  growth at 100 µM: -22%
LOX IMVI
  growth at 0.1 µM: 98%
DU-145 [2]
  growth at 0.1 µM: 98%
M14
  growth at 0.01 µM: 93%
K562
  growth at 1 µM: 96%
SN12C [3]
  growth at 0.1 µM: 96%
RXF 393
  growth at 0.01 µM: 98%
SW-620 [4]
  inhibition of growth at 10 µM: 50%
OVCAR-8
  growth at 0.01 µM: 98%
MOLT-4
  growth at 0.1 µM: 96%
[5]
  GI50: 11.6 µM
  LC50: 61.2 µM
  TGI: 26.6 µM
T47D
  growth at 0.1 µM: 85%
DU-145 [6]
  growth at 100 µM: -84%
NCI-H460 [7]
  growth at 0.1 µM: 103%
[8]
  GI50: 9.83 µM
  LC50: > 100 µM
  TGI: 56.7 µM
NCI-H460 [9]
  growth at 1 µM: 88%
MDA-MB-231 [10]
  GI50: 2.37 µM
  LC50: > 100 µM
  TGI: 8.24 µM
OVCAR-3 [11]
  growth at 0.01 µM: 97%
MDA-MB-231 [12]
  growth at 0.01 µM: 99%
NCI-H322M
  growth at 1 µM: 85%
SW-620 [13]
  growth at 0.01 µM: 99%
HOP-92 [14]
  growth at 100 µM: -84%
SK-MEL-28
  growth at 0.01 µM: 95%
SK-OV-3
  growth at 1 µM: 100%
KM12
  growth at 100 µM: -79%
OVCAR-3 [15]
  growth at 100 µM: -90%
NCI-H226
  growth at 1 µM: 87%
A549
  growth at 100 µM: -49%
MCF7 [16]
  growth at 1 µM: 73%
MCF7 [17]
  inhibition of growth at 10 µM: 70%
HOP-92 [18]
  GI50: 0.585 µM
  LC50: 36.2 µM
  TGI: 6.97 µM
UACC-62
  GI50: 1.8 µM
  TGI: 3.7 µM
UACC-62; read-out: LC50 (the source's name)
  CC50: 7.59 µM
SK-MEL-2 [19]
  GI50: 3.16 µM
  LC50: 53.3 µM
  TGI: 11.4 µM
HCT-116
  growth at 100 µM: -77%
SK-MEL-2 [20]
  growth at 1 µM: 96%

## C=CCn1c(C)nc2ccc(Nc3nc(Sc4ccc(N)cc4)nc4ccccc34)cc21
RPMI-8226
  inhibition of growth at 10 µM: 40%
[21]
  growth at 10 µM: 96.5%

## C=CCn1c(C)nc2ccc(Nc3nc(Nc4ncccn4)nc4ccccc34)cc21
RPMI-8226
  inhibition of growth at 10 µM: 30%
[21]
  growth at 10 µM: 87.2%

## C=CCn1c(C)nc2ccc(Nc3nc(NCCO)nc4ccccc34)cc21
[21]
  growth at 10 µM: 95.5%
